# Measured values published in patent US20250003970A1, “FRET ENZYMATIC SUBSTRATE AND USES THEREOF IN LUNG CANCER” (URTESTE S.A., priority 2021, published 2025).
# Where “and” joins values, the source holds several entries; their conditions need not be identical. Equal entries are not always repeated. Starred links: 1 amine or outer side, 2 acyl side, 3 side chain; linkers in the order of their positions; H or OH if unused. Non-standard residues stand in square brackets, D forms with d. No end group written: not given here. Benzoyl(5-NH,2-NO2) = O=C(c1cc(N[*:1])ccc1[N+](=O)[O-])[*:2]; 2Abz = Nc1ccccc1C(=O)O
# Tests used:
# Format in all cases: biochemical, human
# [1] = system: urine samples taken from healthy persons; assay: Absorbance measurement of substrate hydrolysis in urine from healthy subjects; details: for absorbance (Results of absorbance analysis): healthy person, 405 nm, 37° C., 60 minutes, pH 8.0, triplicate
# [2] = system: urine samples from patients with diagnosed cancers; assay: Selectivity of substrate cleavage in urine from patients with different cancers
# From the text: Arabic numerals indicate the numbers of given cancer types. The samples tested for each type of cancer were derived from 20 different patients for each of the tested cancers. The results are mean values for given cancer types.
# (§1) The activity of the novel compounds according to the invention was studied in a group of 20 subjects diagnosed with lung cancer using the representative compound according to the invention. […] The remaining compounds according to the invention are characterized by the analogous mechanism of action. For this purpose, the representative compound according to the invention, ABZ^1-Tyr^2-Ile^3-Phe^4-Arg^5-ANB^6-NH2, was dissolved in dimethyl sulfoxide (at a concentration of 0.5 mg/mL) and then 50 μL of the solution was mixed with 120 μL of a buffer (200 mM Tris-HCl, pH 8.0) and 80 μL of urine from a subject suffering from lung cancer. The measurement was performed on a 96-well plate designed for measuring absorbance and each sample was analysed in triplicate at the temperature of 37° C. The duration of the measurement was 60 minutes. During the measurement, the wavelength characteristic for the chromophore (ANB-NH2) being released was monitored at the wavelength 405 nm (range 380-430 nm).
# Furthermore, the dependence of the cleavage selectivity of the substrate, i.e. the compound according to the invention, on the cancer being examined, was studied. […]
# [3] = system: enzymatic activity specific to lung cancer in urine from a subject suffering from lung cancer; assay: Absorbance measurement of substrate hydrolysis in urine from subjects with lung cancer; details: for absorbance (Results of absorbance analysis): 405 nm, 37° C., 60 minutes, pH 8.0, triplicate
# Protocol: as §1
substance,measurement,setting,value
"ABZ-Tyr-Ile-Phe-Arg-ANB-NH2 ([2Abz]YIFR-{Benzoyl(5-NH,2-NO2)-NH2}) [chromogenic/fluorogenic FRET peptide substrate, ABZ = 2-aminobenzoic acid, ANB-NH2 = amide of 5-amino-2-nitrobenzoic acid]",absorbance (Results of absorbance analysis),[1]; urine sample 1Z,0.00000
same,absorbance (Results of absorbance analysis),[1]; urine sample 2Z,0.00000
same,absorbance (Results of absorbance analysis),[1]; urine sample 3Z,0.00000
same,absorbance (Results of absorbance analysis),[1]; urine sample 4Z,0.00000
same,absorbance (Results of absorbance analysis),[1]; urine sample 5Z,0.00000
same,absorbance (Results of absorbance analysis),[1]; urine sample 6Z,0.00000
same,absorbance (Results of absorbance analysis),[1]; urine sample 7Z,0.00000
same,absorbance (Results of absorbance analysis),[1]; urine sample 8Z,0.00000
same,absorbance (Results of absorbance analysis),[1]; urine sample 9Z,0.00000
same,absorbance (Results of absorbance analysis),[1]; urine sample 10Z,0.00000
same,absorbance (Results of absorbance analysis),[1]; urine sample 11Z,0.00000
same,absorbance (Results of absorbance analysis),[1]; urine sample 12Z,0.00000
same,absorbance (Results of absorbance analysis),[1]; urine sample 13Z,0.00000
same,absorbance (Results of absorbance analysis),[1]; urine sample 14Z,0.00000
same,absorbance (Results of absorbance analysis),[1]; urine sample 15Z,0.00000
same,absorbance (Results of absorbance analysis),[1]; urine sample 16Z,0.00000
same,absorbance (Results of absorbance analysis),[1]; urine sample 17Z,0.00000
same,absorbance (Results of absorbance analysis),[1]; urine sample 18Z,0.00000
same,absorbance (Results of absorbance analysis),[1]; urine sample 19Z,0.00000
same,absorbance (Results of absorbance analysis),[1]; urine sample 20Z,0.00000
same,absorbance (Results of absorbance analysis),[1]; urine sample 21Z,0.00000
same,absorbance (Results of absorbance analysis),[1]; urine sample 22Z,0.00000
same,absorbance (Results of absorbance analysis),[1]; urine sample 23Z,0.00000
same,absorbance (Results of absorbance analysis),[1]; urine sample 24Z,0.00000
same,absorbance (Results of absorbance analysis),[1]; urine sample 25Z,0.00000
same,increase in absorbance / hydrolysis,[1]; urine samples from healthy persons 1Z to 25Z,does not lead to an increase in absorbance
same,selectivity of hydrolysis of the substrate,"[2]; lung cancer urine (sample 1) vs other neoplastic disease (samples 2-9), FIG. 3, mean values",selectivity of substrate cleavage in the case of urine from patients with lung cancer
same,cleavage / increase in absorbance,"[2]; samples from patients with testicular, intestine, kidney, prostate, pancreatic, bile duct, lung, ovarian, and rectum cancer",is not subject to cleavage
same,cleavage of the substrate,[3]; all samples 1-50 from persons suffering from lung cancer,underwent cleavage
same,efficiency of cleavage of the substrate,[3]; samples 7 and 16 compared with samples 50 or 42 (FIG. 2),less efficiently
same,absorbance (Results of absorbance analysis),"[3]; urine sample 7, lung cancer",0.0015 and 0.0017 and 0.002
same,absorbance (Results of absorbance analysis),"[3]; urine sample 8, lung cancer",0.0032 and 0.0031 and 0.0036
same,absorbance (Results of absorbance analysis),"[3]; urine sample 9, lung cancer",0.026 and 0.0294 and 0.025
same,absorbance (Results of absorbance analysis),"[3]; urine sample 10, lung cancer",0.0403 and 0.0738 and 0.056
same,absorbance (Results of absorbance analysis),"[3]; urine sample 11, lung cancer",0.0195 and 0.019 and 0.0188
same,absorbance (Results of absorbance analysis),"[3]; urine sample 12, lung cancer",0.0056 and 0.0068 and 0.0062
same,absorbance (Results of absorbance analysis),"[3]; urine sample 13, lung cancer",0.063 and 0.0633 and 0.0632
same,absorbance (Results of absorbance analysis),"[3]; urine sample 14, lung cancer",0.018 and 0.0176 and 0.0179
same,absorbance (Results of absorbance analysis),"[3]; urine sample 15, lung cancer",0.015 and 0.0139 and 0.0146
same,absorbance (Results of absorbance analysis),"[3]; urine sample 16, lung cancer",0.0015 and 0.0016 and 0.002
same,absorbance (Results of absorbance analysis),"[3]; urine sample 17, lung cancer",0.0096 and 0.0095 and 0.0102
same,absorbance (Results of absorbance analysis),"[3]; urine sample 18, lung cancer",0.0104 and 0.019 and 0.0156
same,absorbance (Results of absorbance analysis),"[3]; urine sample 20, lung cancer",0.0443 and 0.0299 and 0.036
same,absorbance (Results of absorbance analysis),"[3]; urine sample 21, lung cancer",0.0215 and 0.022 and 0.0256
same,absorbance (Results of absorbance analysis),"[3]; urine sample 22, lung cancer",0.0301 and 0.0349 and 0.035
same,absorbance (Results of absorbance analysis),"[3]; urine sample 23, lung cancer",0.0732 and 0.0483 and 0.065
same,absorbance (Results of absorbance analysis),"[3]; urine sample 25, lung cancer",0.0703 and 0.0549 and 0.062
same,absorbance (Results of absorbance analysis),"[3]; urine sample 26, lung cancer",0.149 and 0.1049 and 0.103
same,absorbance (Results of absorbance analysis),"[3]; urine sample 27, lung cancer",0.1005 and 0.1078 and 0.106
same,absorbance (Results of absorbance analysis),"[3]; urine sample 28, lung cancer",0.0613 and 0.0765 and 0.072
same,absorbance (Results of absorbance analysis),"[3]; urine sample 29, lung cancer",0.0203 and 0.0218 and 0.025
same,absorbance (Results of absorbance analysis),"[3]; urine sample 30, lung cancer",0.1595 and 0.1543 and 0.156
same,absorbance (Results of absorbance analysis),"[3]; urine sample 31, lung cancer",0.0346 and 0.0306 and 0.036
same,absorbance (Results of absorbance analysis),"[3]; urine sample 32, lung cancer",0.01457 and 0.0186 and 0.0159
same,absorbance (Results of absorbance analysis),"[3]; urine sample 33, lung cancer",0.07 and 0.0625 and 0.0687
same,absorbance (Results of absorbance analysis),"[3]; urine sample 34, lung cancer",0.0421 and 0.0243 and 0.036
same,absorbance (Results of absorbance analysis),"[3]; urine sample 35, lung cancer",0.0402 and 0.0714 and 0.0632
same,absorbance (Results of absorbance analysis),"[3]; urine sample 36, lung cancer",0.0046 and 0.0057 and 0.00498
same,absorbance (Results of absorbance analysis),"[3]; urine sample 37, lung cancer",0.058 and 0.065 and 0.062
same,absorbance (Results of absorbance analysis),"[3]; urine sample 38, lung cancer",0.0194 and 0.01741 and 0.0185
same,absorbance (Results of absorbance analysis),"[3]; urine sample 40, lung cancer",0.0572 and 0.03085 and 0.0469
same,absorbance (Results of absorbance analysis),"[3]; urine sample 41, lung cancer",0.0138 and 0.0163 and 0.0156
same,absorbance (Results of absorbance analysis),"[3]; urine sample 42, lung cancer",0.1543 and 0.1976 and 0.175
same,absorbance (Results of absorbance analysis),"[3]; urine sample 43, lung cancer",0.0366
